Results taken from article PMC11079024, “Identification of a family of species-selective complex I inhibitors as potential anthelmintics” (Nature Communications, 2024).
Where “and” joins values, the source holds several entries; their conditions need not be identical. Equal entries are not always repeated. Where two headings read alike, the source gives them in different places.

How the values were obtained:
[1] = target: B. taurus (heart) complex I (Bos taurus, UniProt P03887+P17694+P42026); experiment: biochemical; assay type: biochemical; conditions: for IC50: read-out: B. taurus Complex I IC50
How it was run: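 Complex I activity followed as DCIP reduction (600 nm, 30 s reads, 15 min) with 80 μM NADH and 60 μM decylubiquinone in 25 mM KPi pH 7.5 containing 2 μM antimycin A and 2 mM KCN. Freeze-thawed mouse or bovine heart mitochondria at 0.2 mg/mL; initial-rate percent of solvent control, single-point 100 μM or dose-response.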

[2] = target: C. elegans (N2) complex I (NADH:ubiquinone oxidoreductase) (Caenorhabditis elegans, UniProt P24887+Q93873+Q94360); experiment: biochemical; assay type: biochemical; conditions: 0.0001 µM; wild-type C. elegans; individual Rep1-Rep4; read-out: percent in vitro complex I activity relative to solvent control, single replicates
How it was run: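 Activity expressed as percent of solvent control. Complex I rate came from DCIP reduction at 600 nm (initial linear slope, 15 min) with NADH and decylubiquinone as substrates, plus antimycin A and KCN, in pH 7.5 KPi/BSA buffer. Isolated, thrice freeze-thawed mitochondria used at 0.2 mg/mL.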

[3] = B. taurus (heart) mitochondria, mean of replicates, read-out: percent (%) in vitro complex I activity relative to solvent control
[4] = B. taurus (heart) mitochondria, single replicate, read-out: percent (%) in vitro complex I activity relative to solvent control
[5] = B. taurus (heart) mitochondria, Mean of replicates, read-out: in vitro complex I activity relative to solvent control
[6] = B. taurus (heart) mitochondria, single replicate, read-out: in vitro complex I activity relative to solvent control

Chain of B. taurus (heart) complex I (P03887 whole entry): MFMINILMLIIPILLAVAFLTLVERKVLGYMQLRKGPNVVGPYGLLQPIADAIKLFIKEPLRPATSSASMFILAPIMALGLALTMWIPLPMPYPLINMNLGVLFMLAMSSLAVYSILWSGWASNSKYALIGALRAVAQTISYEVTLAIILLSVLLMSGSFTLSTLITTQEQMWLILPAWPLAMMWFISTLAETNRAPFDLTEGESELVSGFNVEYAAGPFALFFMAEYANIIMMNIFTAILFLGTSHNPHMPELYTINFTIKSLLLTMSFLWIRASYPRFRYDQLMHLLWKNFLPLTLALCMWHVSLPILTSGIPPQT
Chain of B. taurus (heart) complex I (P17694 34-463): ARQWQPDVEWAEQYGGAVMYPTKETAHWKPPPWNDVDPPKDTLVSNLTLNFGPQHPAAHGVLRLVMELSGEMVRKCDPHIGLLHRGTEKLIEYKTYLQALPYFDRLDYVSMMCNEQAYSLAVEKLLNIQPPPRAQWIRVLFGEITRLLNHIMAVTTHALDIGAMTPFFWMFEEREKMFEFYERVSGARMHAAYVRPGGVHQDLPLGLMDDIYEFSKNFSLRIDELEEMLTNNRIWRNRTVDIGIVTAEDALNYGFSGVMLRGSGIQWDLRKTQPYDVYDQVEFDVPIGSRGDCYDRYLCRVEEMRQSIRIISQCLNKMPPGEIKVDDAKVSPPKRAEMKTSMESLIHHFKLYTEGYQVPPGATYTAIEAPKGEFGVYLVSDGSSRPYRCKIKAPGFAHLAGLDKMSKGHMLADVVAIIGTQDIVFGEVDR
Chain of B. taurus (heart) complex I (P42026 38-216): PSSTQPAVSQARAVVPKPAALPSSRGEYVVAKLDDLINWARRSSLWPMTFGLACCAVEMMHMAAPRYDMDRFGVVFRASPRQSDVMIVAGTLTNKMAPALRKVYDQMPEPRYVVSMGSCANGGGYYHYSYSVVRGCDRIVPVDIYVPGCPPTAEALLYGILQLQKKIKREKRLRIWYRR
Chain of C. elegans (N2) complex I (NADH:ubiquinone oxidoreductase) (Q94360 17-199): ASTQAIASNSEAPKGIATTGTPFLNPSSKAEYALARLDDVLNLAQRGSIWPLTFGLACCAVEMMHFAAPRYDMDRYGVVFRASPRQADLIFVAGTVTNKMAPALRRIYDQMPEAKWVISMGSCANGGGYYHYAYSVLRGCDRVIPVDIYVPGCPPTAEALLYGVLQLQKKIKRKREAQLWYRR
Chain of C. elegans (N2) complex I (NADH:ubiquinone oxidoreductase) (P24887 whole entry): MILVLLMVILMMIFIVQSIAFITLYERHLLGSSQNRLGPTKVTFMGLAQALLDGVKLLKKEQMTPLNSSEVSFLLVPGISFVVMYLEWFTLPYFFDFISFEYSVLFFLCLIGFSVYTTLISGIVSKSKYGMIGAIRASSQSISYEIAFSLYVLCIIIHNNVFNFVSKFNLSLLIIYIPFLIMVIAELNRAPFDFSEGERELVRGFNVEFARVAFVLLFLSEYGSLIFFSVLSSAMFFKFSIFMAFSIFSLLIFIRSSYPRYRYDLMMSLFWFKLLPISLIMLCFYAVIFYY
Chain of C. elegans (N2) complex I (NADH:ubiquinone oxidoreductase) (Q93873 31-482): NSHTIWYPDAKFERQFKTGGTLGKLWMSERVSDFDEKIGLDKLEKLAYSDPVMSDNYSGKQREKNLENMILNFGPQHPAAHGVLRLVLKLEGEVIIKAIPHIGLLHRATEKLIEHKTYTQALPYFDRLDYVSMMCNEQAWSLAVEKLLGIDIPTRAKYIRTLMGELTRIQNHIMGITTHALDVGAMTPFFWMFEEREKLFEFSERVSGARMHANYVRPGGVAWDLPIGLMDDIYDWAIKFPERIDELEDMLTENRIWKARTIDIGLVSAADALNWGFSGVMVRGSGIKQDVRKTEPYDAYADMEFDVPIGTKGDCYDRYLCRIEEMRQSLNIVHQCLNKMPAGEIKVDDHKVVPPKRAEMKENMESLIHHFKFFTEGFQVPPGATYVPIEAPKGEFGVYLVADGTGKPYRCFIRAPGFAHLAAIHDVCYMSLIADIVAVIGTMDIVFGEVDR

## CC(C)Cc1ccc(C(C)c2nc3ccccc3n2C)cc1 (stereo not drawn) [NPD8790]
[1]; 0.125 µM, B. taurus (heart) mitochondria, mean of replicates, read-out: percent (%) in vitro complex I activity relative to solvent control
  remaining activity at 0.125 µM: 101%
[1]; [3]
  remaining activity at 0.313 µM: 112%
  remaining activity at 0.625 µM: 103%
  remaining activity at 1.5 µM: 107%
  remaining activity at 3 µM: 104%
  remaining activity at 15 µM: 79.4%
  remaining activity at 37.5 µM: 38%
  remaining activity at 75 µM: 13.6%
[1]; [4]
  remaining activity at 0.313 µM: 118%
  remaining activity at 0.625 µM: 96.1%
  remaining activity at 37.5 µM: 38.8%
[1]; B. taurus (heart) mitochondria, 0.06 µM, Mean of replicates, read-out: in vitro complex I activity relative to solvent control
  remaining activity at 0.06 µM: 103%
[1]; B. taurus (heart) mitochondria, 0.13 µM, Mean of replicates, read-out: in vitro complex I activity relative to solvent control
  remaining activity at 0.13 µM: 101%
[1]; [5]
  remaining activity at 0.313 µM: 112%
  remaining activity at 0.625 µM: 103%
  remaining activity at 1.5 µM: 107%
  remaining activity at 3 µM: 104%
  remaining activity at 15 µM: 79.4%
  remaining activity at 37.5 µM: 38%
  remaining activity at 75 µM: 13.6%
[1]; [6]
  remaining activity at 0.313 µM: 118%
  remaining activity at 0.625 µM: 96.1%
  remaining activity at 37.5 µM: 38.8%
[1]; B. taurus heart mitochondria
  IC50: 27.2 µM
[1]; B. taurus, dose 0.0001 µM, Mean of replicates, read-out: Complex I activity, dose-response data
  activity at 0.0001 µM: 104%
[1]; B. taurus, dose 0.0001 µM, individual replicates (Rep)
  Complex I activity, dose-response data: 106.495 and 102.513 and 108.647
[1]; B. taurus, dose 0.0001 µM, individual replicates (Rep), read-out: Complex I activity, dose-response data
  activity at 0.0001 µM: 97.6%
[1]; B. taurus, dose 0.0005 µM, Mean of replicates, read-out: Complex I activity, dose-response data
  activity at 0.0005 µM: 101%
[1]; B. taurus, dose 0.0005 µM, individual replicates (Rep)
  Complex I activity, dose-response data: 104.650 and 93.657 and 105.597
[1]; B. taurus, dose 0.0005 µM, individual replicates (Rep), read-out: Complex I activity, dose-response data
  activity at 0.0005 µM: 99.4%
[1]; B. taurus, dose 0.001 µM, Mean of replicates, read-out: Complex I activity, dose-response data
  activity at 0.001 µM: 105%
[1]; B. taurus, dose 0.001 µM, individual replicates (Rep)
  Complex I activity, dose-response data: 106.670 and 104.354 and 107.534
[1]; B. taurus, dose 0.001 µM, individual replicates (Rep), read-out: Complex I activity, dose-response data
  activity at 0.001 µM: 103%
[1]; B. taurus, dose 0.0025 µM, Mean of replicates, read-out: Complex I activity, dose-response data
  activity at 0.0025 µM: 104%
[1]; B. taurus, dose 0.0025 µM, individual replicates (Rep)
  Complex I activity, dose-response data: 99.492 and 117.130 and 91.896 and 108.464
[1]; B. taurus, dose 0.005 µM, Mean of replicates, read-out: Complex I activity, dose-response data
  activity at 0.005 µM: 114%
[1]; B. taurus, dose 0.005 µM, individual replicates (Rep)
  Complex I activity, dose-response data: 112.174 and 127.690 and 101.653 and 112.765
[1]; B. taurus, dose 0.013 µM, Mean of replicates, read-out: Complex I activity, dose-response data
  activity at 0.013 µM: 99.8%
[1]; B. taurus, dose 0.013 µM, individual replicates (Rep)
  Complex I activity, dose-response data: 108.528 and 89.880 and 103.599
[1]; B. taurus, dose 0.013 µM, individual replicates (Rep), read-out: Complex I activity, dose-response data
  activity at 0.013 µM: 97.2%
[1]; B. taurus, dose 0.025 µM, Mean of replicates, read-out: Complex I activity, dose-response data
  activity at 0.025 µM: 101%
[1]; B. taurus, dose 0.025 µM, individual replicates (Rep)
  Complex I activity, dose-response data: 88.122 and 92.313 and 109.456
[1]; B. taurus, dose 0.063 µM, Mean of replicates, read-out: Complex I activity, dose-response data
  activity at 0.063 µM: 103%
[1]; B. taurus, dose 0.063 µM, individual replicates (Rep)
  Complex I activity, dose-response data: 101.538 and 112.181 and 91.251 and 105.094
[1]; B. taurus, dose 0.125 µM, Mean of replicates, read-out: Complex I activity, dose-response data
  activity at 0.125 µM: 101%
[1]; B. taurus, dose 0.125 µM, individual replicates (Rep)
  Complex I activity, dose-response data: 111.398 and 110.709 and 87.488 and 92.420
[1]; B. taurus, dose 0.313 µM, Mean of replicates, read-out: Complex I activity, dose-response data
  activity at 0.313 µM: 112%
[1]; B. taurus, dose 0.313 µM, individual replicates (Rep)
  Complex I activity, dose-response data: 118.464 and 105.228 and 106.985
[1]; B. taurus, dose 0.313 µM, individual replicates (Rep), read-out: Complex I activity, dose-response data
  activity at 0.313 µM: 118%
[1]; B. taurus, dose 0.625 µM, Mean of replicates, read-out: Complex I activity, dose-response data
  activity at 0.625 µM: 103%
[1]; B. taurus, dose 0.625 µM, individual replicates (Rep)
  Complex I activity, dose-response data: 106.273 and 97.568 and 112.424
[1]; B. taurus, dose 0.625 µM, individual replicates (Rep), read-out: Complex I activity, dose-response data
  activity at 0.625 µM: 96.1%
[1]; B. taurus, dose 1.5 µM, Mean of replicates, read-out: Complex I activity, dose-response data
  activity at 1.5 µM: 107%
[1]; B. taurus, dose 1.5 µM, individual replicates (Rep)
  Complex I activity, dose-response data: 108.615 and 114.555 and 94.027 and 109.488
[1]; B. taurus, dose 3 µM, Mean of replicates, read-out: Complex I activity, dose-response data
  activity at 3 µM: 104%
[1]; B. taurus, dose 3 µM, individual replicates (Rep)
  Complex I activity, dose-response data: 105.743 and 114.475 and 92.946 and 103.733
[1]; B. taurus, dose 15 µM, Mean of replicates, read-out: Complex I activity, dose-response data
  activity at 15 µM: 79.4%
[1]; B. taurus, dose 15 µM, individual replicates (Rep)
  Complex I activity, dose-response data: 82.876 and 90.607 and 69.676 and 74.384
[1]; B. taurus, dose 37.5 µM, Mean of replicates, read-out: Complex I activity, dose-response data
  activity at 37.5 µM: 38%
[1]; B. taurus, dose 37.5 µM, individual replicates (Rep)
  Complex I activity, dose-response data: 49.756 and 32.716 and 30.663
[1]; B. taurus, dose 37.5 µM, individual replicates (Rep), read-out: Complex I activity, dose-response data
  activity at 37.5 µM: 38.8%
[1]; B. taurus, dose 75 µM, Mean of replicates, read-out: Complex I activity, dose-response data
  activity at 75 µM: 13.6%
[1]; B. taurus, dose 75 µM, individual replicates (Rep)
  Complex I activity, dose-response data: 6.165 and 16.790 and 16.865 and 14.475
[1]; heart mitochondria
  IC50: 27.2 µM
[1]; log10 of IC50 in µM, B. taurus mitochondria
  Log IC50 B. taurus complex I: 1.43 µM
[2]
  remaining activity at 0.0001 µM: 100%
